Laboratory results taken from US11226337B2, “Chemoproteomic profiling of protein electrophilic and oxidative post-translational modifications” (Zenagem, LLC, priority 2017, dated 2022).

Experiments:
Assay in all cases: SILAC RP-ABPP
Type in all cases: cell-based
[1] = molecular target: T1, AMD1 S-adenosylmethionine decarboxylase (P17707) (Homo sapiens, UniProt P17707); conditions: SILAC H/L, HEK293T
T1 construct: shared by both the endogenous and recombinant forms of these proteins; endogenous in cells; host or cells: HEK293T and MDA-MB-231
T1 sequence (P17707 68-334 limits assumed): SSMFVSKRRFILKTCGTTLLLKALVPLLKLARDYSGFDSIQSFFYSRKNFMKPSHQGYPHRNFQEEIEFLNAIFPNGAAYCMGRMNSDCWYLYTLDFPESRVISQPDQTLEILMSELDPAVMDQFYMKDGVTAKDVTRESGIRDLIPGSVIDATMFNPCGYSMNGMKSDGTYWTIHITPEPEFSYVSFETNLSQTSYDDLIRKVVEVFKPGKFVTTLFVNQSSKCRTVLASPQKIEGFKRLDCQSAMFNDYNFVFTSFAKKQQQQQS
T1 sequence (P17707 1-67 limits assumed): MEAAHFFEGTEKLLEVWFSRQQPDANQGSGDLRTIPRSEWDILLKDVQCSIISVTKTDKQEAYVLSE
Experimental: (§1) Modifications to this protocol included using isotopically ‘light’ and ‘heavy’ SILAC cells that were also grown to near complete confluence prior to treatment. Isotopically light cells were treated with the non-clickable hydrazine probe (at the same concentration as the probe in ‘enrichment’ experiments) or the probe in the presence of 10-fold excess non-clickable hydrazine probe as a competitor (in ‘competition’ experiments). Isotopically heavy cells were treated with the probe for both types of experiments. These treatments were performed in non-SILAC media. Following treatments, cells were washed with cold PBS to remove the probe-containing media, harvested by scraping, collected by centrifugation (1,400 g, 3 min, 4° C.), washed again by resuspension in cold PBS and frozen as pellets at −80° C. until use.
(§2) The fractionated equimolar mixture of heavy and light soluble proteomes (1-1.5 mg) was diluted to 1 mL in PBS. Click reactions were scaled accordingly (except for biotin-azide) to maintain final concentrations of 0.1 mM TBTA, 1 mM CuSO4, 100 μM biotin-azide (10 mM in DMSO) and 1 mM TCEP. The mixture was vortexed and placed on a rotator at ambient temperature for 1 hour. Sequential addition of and mixture with pre-chilled methanol (MeOH, 2 mL), chloroform (CHCl3, 0.5 mL) and PBS (1 mL) on ice quenched the reaction. The precipitated proteome was centrifuged (5,000 g, 10 min, 4° C.) to fractionate the protein interphase from the organic and aqueous solvent layers. The protein pellet was washed with cold 1:1 MeOH:CHCl3 (3×1 mL), mildly sonicated in cold 4:1 MeOH:CHCl3 (2.5 mL) and pelleted once more by centrifugation (5,000 g, 10 min, 4° C.) to ensure click reagents were efficiently removed.
(§3) Heavy and light parent ion chromatograms associated with successfully identified peptides were extracted and compared using CIMAGE software as previously described^69. At least one ion of a co-eluting heavy-light pair must be accurately identified from a fragmentation event that occurred within the retention time window (±10 min) of parent ion elution. To ensure that the correct pair of peaks is quantified, chromatograms are extracted within a 10 ppm error tolerance of the predicted m/z, the signal-to-noise ratio must be >2.5 and the ‘co-elution correlation score’ and ‘envelope correlation score’ must have R^2 values ≥0.8. In addition, peptides detected as ‘singletons,’ where only the heavy ion of a peptide pair was identified, but for which passed all other filtering parameters, are given a default assigned ratio of ‘20,’ which is defined as any measured ratio that is ≥20.
(§4) To further eliminate false positives and any stochastic variability in the data, protein ratios were then determined by the median peptide ratio derived from three or more unique quantified peptides. Protein ratios that complied with these criteria from a single experiment were then averaged with ratios acquired from ≥3 replicates to provide final values for each type of experiment in both cell lines with both probes. […] Probe targets in HEK293T and MDA-MB-231 cells represent data combined from ≥3 independent biological replicates with each cell type performed with several independent batches of synthesized probes over a period of almost two years.
(§5) Two types of experiments were performed—1) direct enrichment of probe 1-labelled proteins from heavy cells in comparison to light control cells treated with the non-clickable hydrazine (3) at the same concentration as 1 (3 mM for 0.5 h); and 2) competition experiments where both heavy and light cells were treated probe 1, but light cells were also treated with 10× competitor 3 (FIG. 3A)—in two different human cell lines (HEK293T cells and the human breast cancer cell line MDA-MB-231).

LGMN Legumain (Q99538) = molecular target: T2, LGMN Legumain (Q99538) (Homo sapiens, UniProt Q99538); conditions: SILAC H/L
T2 construct: shared by both the endogenous and recombinant forms of these proteins; endogenous in cells; host or cells: HEK293T and MDA-MB-231
T2 sequence (Q99538 18-323): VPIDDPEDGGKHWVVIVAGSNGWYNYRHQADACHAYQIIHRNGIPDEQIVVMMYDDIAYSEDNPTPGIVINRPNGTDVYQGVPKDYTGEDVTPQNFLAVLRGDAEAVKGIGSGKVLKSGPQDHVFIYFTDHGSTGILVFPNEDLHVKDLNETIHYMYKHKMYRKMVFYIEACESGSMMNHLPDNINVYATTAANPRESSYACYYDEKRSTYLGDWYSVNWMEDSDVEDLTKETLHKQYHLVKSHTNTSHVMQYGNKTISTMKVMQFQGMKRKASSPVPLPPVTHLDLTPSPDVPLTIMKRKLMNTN
Experimental: as §1, §2, §3, §4, §5

[2] = molecular target: T3, SCRN2 Secernin-2 (Q96FV2) (Homo sapiens, UniProt Q96FV2); conditions: SILAC H/L, HEK293T
T3 construct: shared by both the endogenous and recombinant forms of these proteins; endogenous in cells; host or cells: HEK293T and MDA-MB-231
Experimental: as §1, §2, §3, §4, §5

[3] = molecular target: T4, SCRN3 Secernin-3 (Q0VDG4) (Homo sapiens, UniProt Q0VDG4); conditions: SILAC H/L, HEK293T
T4 construct: shared by both the endogenous and recombinant forms of these proteins; endogenous in cells; host or cells: HEK293T and MDA-MB-231
T4 sequence (Q0VDG4 6-424): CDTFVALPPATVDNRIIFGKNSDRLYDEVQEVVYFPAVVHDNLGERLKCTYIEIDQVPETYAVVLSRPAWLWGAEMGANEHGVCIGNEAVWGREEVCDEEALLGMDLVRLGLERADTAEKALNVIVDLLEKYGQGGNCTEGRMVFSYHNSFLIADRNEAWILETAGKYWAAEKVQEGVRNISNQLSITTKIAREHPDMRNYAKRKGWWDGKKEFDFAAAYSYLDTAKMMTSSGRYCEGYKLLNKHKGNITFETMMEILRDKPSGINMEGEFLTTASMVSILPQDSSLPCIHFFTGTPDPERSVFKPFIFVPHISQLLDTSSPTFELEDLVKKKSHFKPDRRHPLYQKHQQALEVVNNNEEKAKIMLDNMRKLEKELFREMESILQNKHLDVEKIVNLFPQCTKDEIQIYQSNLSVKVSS
Experimental: as §1, §2, §3, §4, §5

Row | Compound | enrichment ratioavg ([1]; probe 1 3 mM 0.5 h vs probe 3) | competition ratioavg ([1]; probe 1 vs probe 1+10x probe 3) | enrichment ratioavg (LGMN Legumain (Q99538); probe 1 3 mM 0.5 h vs probe 3, HEK293T) | competition ratioavg (LGMN Legumain (Q99538); probe 1 vs probe 1+10x probe 3, HEK293T) | enrichment ratioavg ([2]; probe 1 3 mM 0.5 h vs probe 3) | competition ratioavg ([2]; probe 1 vs probe 1+10x probe 3) | enrichment ratioavg ([3]; probe 1 3 mM 0.5 h vs probe 3) | competition ratioavg ([3]; probe 1 vs probe 1+10x probe 3) | enrichment ratioavg ([1]; probe 2 1 mM 0.5 h vs probe 4) | competition ratioavg ([1]; probe 2 vs probe 2+10x probe 4) | enrichment ratioavg (LGMN Legumain (Q99538); probe 2 1 mM 0.5 h vs probe 4, MDA-MB-231) | competition ratioavg (LGMN Legumain (Q99538); probe 2 vs probe 2+10x probe 4, MDA-MB-231) | enrichment ratioavg ([2]; probe 2 1 mM 0.5 h vs probe 4) | competition ratioavg ([2]; probe 2 vs probe 2+10x probe 4) | enrichment ratioavg ([3]; probe 2 1 mM 0.5 h vs probe 4) | competition ratioavg ([3]; probe 2 vs probe 2+10x probe 4)
1 | C#CCNN.Cl [probe 1, prop-2-yn-1-ylhydrazine hydrochloride] | 20 | 5 | 20 | 18 | 20 | 9 | 20 | 6 |  |  |  |  |  |  |  | 
2 | C#CCCNC(=O)c1ccc(NN)cc1.Cl [probe 2, N-(but-3-yn-1-yl)-4-hydrazinylbenzamide hydrochloride] |  |  |  |  |  |  |  |  | 20 | 6 | 20 | 4 | 20 | 13 | 15 | 16
